System: antibodies from sera of mice immunized with Ft-ΔclpB
Assay type: binding, mouse

## DNTTIIDGAGEK [SEQ ID NO: 7]
  enrichment in Experiment samples relative to Control samples (in words): enriched

## EGVITVEEGK (listed as Francisella tularensis) [SEQ ID NO: 8]
  enrichment in Experiment samples relative to Control samples (in words): enriched

Source: US12139815B2, “Methods for rapid detection of immunogenic epitopes in biothreat agents and emerging pathogens for peptide vaccines and therapeutics” (priority 2021, dated 2024)
